Data from patent US12091426B2, “Bifunctional degraders of hematopoietic progenitor kinase and therapeutic uses thereof” (Nurix Therapeutics, Inc., priority 2021, dated 2024).

Molecular target: T1, HPK1 (Homo sapiens, UniProt Q92918)
T1 construct: A HiBiT tag was introduced by CRISPR on the N terminus of HPK1 in Jurkat cells; host or cells: Jurkat cells (ATCC TIB-152), monoclonal line with CRISPR knock-in of HiBiT at the endogenous HPK1 locus
Assay: HPK1 Cellular HiBit Degradation Assay
Format: cell-based
Conditions: HiBiT HPK1 Jurkat cells, 24 hrs; for DC50: concentration at which 50% of HPK1 was remaining, read-out: DC50 Category; for Dmax: Jurkat, maximum degradation vs DMSO vehicle control, read-out: Dmax Category
Summary of the method: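 HPK1 levels are read by HiBiT luminescence after 24 h exposure of HiBiT-knock-in Jurkat cells to compound at 10 uM–0.1 nM final (11 points). Relative to DMSO (100%), DC50 is the concentration leaving 50% HPK1 from a variable-slope fit, and Dmax is 100 minus minimum remaining. Viability checked in-plate.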

T1 sequence (Q92918 whole entry): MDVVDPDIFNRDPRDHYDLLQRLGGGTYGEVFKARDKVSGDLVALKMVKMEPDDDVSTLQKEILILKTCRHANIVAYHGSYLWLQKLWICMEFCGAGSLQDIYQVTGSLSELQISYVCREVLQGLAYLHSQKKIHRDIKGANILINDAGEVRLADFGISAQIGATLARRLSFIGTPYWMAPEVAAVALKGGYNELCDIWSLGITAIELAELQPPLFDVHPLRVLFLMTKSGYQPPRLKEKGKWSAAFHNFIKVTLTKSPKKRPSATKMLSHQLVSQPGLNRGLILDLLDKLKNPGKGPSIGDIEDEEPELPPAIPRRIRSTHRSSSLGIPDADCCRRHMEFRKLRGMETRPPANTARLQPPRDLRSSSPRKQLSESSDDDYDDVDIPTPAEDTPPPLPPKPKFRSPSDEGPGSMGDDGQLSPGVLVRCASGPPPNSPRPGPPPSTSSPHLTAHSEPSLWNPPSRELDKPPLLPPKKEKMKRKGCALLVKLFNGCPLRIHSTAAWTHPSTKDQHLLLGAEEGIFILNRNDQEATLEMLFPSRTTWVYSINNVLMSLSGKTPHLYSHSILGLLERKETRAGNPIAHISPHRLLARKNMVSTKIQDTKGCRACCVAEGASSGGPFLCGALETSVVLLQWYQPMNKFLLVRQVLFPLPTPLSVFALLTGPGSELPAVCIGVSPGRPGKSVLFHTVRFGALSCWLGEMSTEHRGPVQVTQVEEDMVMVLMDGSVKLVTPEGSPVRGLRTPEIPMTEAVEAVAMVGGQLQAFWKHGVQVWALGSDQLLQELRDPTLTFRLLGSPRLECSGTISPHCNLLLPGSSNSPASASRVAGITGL

| Structure (SMILES) | DC50 | Dmax |
| --- | --- | --- |
| Cc1cc(C(=O)N2CCC3(CC2)C(=O)N([C@H]2C[C@@H](N4CCCCC4)C2)c2cc(-c4cc5ncn(C(C)C)c5c(Nc5ccccc5F)n4)ccc23)ccc1C(=O)N1CCN(c2ccc3c(c2)C(=O)N(C2CCC(=O)NC2=O)C3=O)CC1 (mixture of isomers) [Example 125, 2-[(3RS)-2,6-dioxopiperidin-3-yl]-5-(4-{4-[(6-{4-[(2-fluorophenyl)amino]-3-(propan-2-yl)-3H-imidazo[4,5-c]pyridin-6-yl}-2-oxo-1-[(1S,3S)-3-(piperidin-1-yl)cyclobutyl]-1,2-dihydrospiro[indole-3,4′-piperidin]-1′-yl)carbonyl]-2-methylbenzoyl}piperazin-1-yl)-2,3-dihydro-1H-isoindole-1,3-dione] | 500 to 1000 nM | 50 to 70% |
| CC(C)n1cnc2cc(-c3ccc4c(c3)N([C@H]3C[C@@H](N5CCCCC5)C3)C(=O)C43CCN(C(=O)[C@@H]4CCN(C(=O)[C@H]5CC[C@H](Nc6cccc7c6C(=O)N(C6CCC(=O)NC6=O)C7=O)CC5)C4)CC3)nc(Nc3ccccc3F)c21 (mixture of isomers) [Example 9, 2-[(3RS)-2,6-dioxopiperidin-3-yl]-4-{[(1R,4R)-4-[(3R)-3-[(6-{4-[(2-fluorophenyl)amino]-3-(propan-2-yl)-3H-imidazo[4,5-c]pyridin-6-yl}-2-oxo-1-[(1S,3S)-3-(piperidin-1-yl)cyclobutyl]-1,2-dihydrospiro[indole-3,4′-piperidin]-1′-yl)carbonyl]pyrrolidine-1-carbonyl]cyclohexyl]amino}-2,3-dihydro-1H-isoindole-1,3-dione] | 100 to 500 nM | > 85% |
| CC(C)n1cnc2cc(-c3ccc4c(c3)N([C@H]3C[C@@H](N5CCCCC5)C3)C(=O)C43CCN(C(=O)[C@@H]4CCN(C(=O)[C@H]5CC[C@H](Nc6cc(C7CCC(=O)NC7=O)ccn6)CC5)C4)CC3)nc(Nc3ccccc3F)c21 (mixture of isomers) [Example 1, (3RS)-3-(2-{[(1R,4R)-4-[(3R)-3-[(6-{4-[(2-fluorophenyl)amino]-3-(propan-2-yl)-3H-imidazo[4,5-c]pyridin-6-yl}-2-oxo-1-[(1S,3S)-3-(piperidin-1-yl)cyclobutyl]-1,2-dihydrospiro[indole-3,4′-piperidin]-1′-yl)carbonyl]pyrrolidine-1-carbonyl]cyclohexyl]amino}pyridin-4-yl)piperidine-2,6-dione] | 100 to 500 nM | 70 to 85% |
| CC(C)n1cnc2cc(-c3ccc4c(c3)N([C@H]3C[C@@H](N5CCCCC5)C3)C(=O)C43CCN(C(=O)[C@H]4CC[C@@H](C(=O)N5CCC(N(C)c6ccc(C7CCC(=O)NC7=O)cc6)CC5)CC4)CC3)nc(NC3CC3)c21 (mixture of isomers) [Example 228, (3RS)-3-{4-[methyl({1-[(1S,4S)-4-({6-[4-(cyclopropylamino)-3-(propan-2-yl)-3H-imidazo[4,5-c]pyridin-6-yl]-2-oxo-1-[(1S,3S)-3-(piperidin-1-yl)cyclobutyl]-1,2-dihydrospiro[indole-3,4′-piperidin]-1′-yl}carbonyl)cyclohexanecarbonyl]piperidin-4-yl})amino]phenyl}piperidine-2,6-dione] | 100 to 500 nM | 50 to 70% |
| CC(C)n1cnc2cc(-c3ccc4c(c3)N([C@H]3C[C@@H](N5CCCCC5)C3)C(=O)C43CCN(C(=O)C4CCN(C(=O)C5CCN(c6ncc(C7CCC(=O)NC7=O)cn6)CC5)CC4)CC3)nc(NC3CC3)c21 (mixture of isomers) [Example 89, (3RS)-3-(2-{4-[4-({6-[4-(cyclopropylamino)-3-(propan-2-yl)-3H-imidazo[4,5-c]pyridin-6-yl]-2-oxo-1-[(1S,3S)-3-(piperidin-1-yl)cyclobutyl]-1,2-dihydrospiro[indole-3,4′-piperidin]-1′-yl}carbonyl)piperidine-1-carbonyl]piperidin-1-yl}pyrimidin-5-yl)piperidine-2,6-dione] | 100 to 500 nM | 50 to 70% |
| CC(C)n1cnc2cc(-c3ccc4c(c3)N([C@H]3C[C@@H](N5CCCCC5)C3)C(=O)C43CCN(C(=O)c4ccc(C(=O)N5CCN(c6ccc7c(c6)C(=O)N(C6CCC(=O)NC6=O)C7=O)CC5)cc4)CC3)nc(Nc3ccncc3F)c21 (mixture of isomers) [Example 42, 2-[(3RS)-2,6-dioxopiperidin-3-yl]-5-(4-{4-[(6-{4-[(3-Fluoropyridin-4-yl)amino]-3-(propan-2-yl)-3H-imidazo[4,5-c]pyridin-6-yl}-2-oxo-1-[(1S,3S)-3-(piperidin-1-yl)cyclobutyl]-1,2-dihydrospiro[indole-3,4′-piperidin]-1′-yl)carbonyl]benzoyl}piperazin-1-yl)-2,3-dihydro-1H-isoindole-1,3-dione] | 500 to 1000 nM | 50 to 70% |
| CC(C)n1cnc2cc(-c3ccc4c(c3)N([C@H]3C[C@@H](N5CCCCC5)C3)C(=O)C43CCN(C(=O)[C@H]4CCCN(C(=O)CC5CCN(c6ccc(C7CCC(=O)NC7=O)cn6)CC5)C4)CC3)nc(NC3CC3)c21 (mixture of isomers) [Example 231, (3RS)-3-[6-(4-{2-[(3S)-3-({6-[4-(cyclopropylamino)-3-(propan-2-yl)-3H-imidazo[4,5-c]pyridin-6-yl]-2-oxo-1-[(1S,3S)-3-(piperidin-1-yl)cyclobutyl]-1,2-dihydrospiro[indole-3,4′-piperidin]-1′-yl}carbonyl)piperidin-1-yl]-2-oxoethyl}piperidin-1-yl)pyridin-3-yl]piperidine-2,6-dione] | 100 to 500 nM | 50 to 70% |
| CC(C)n1cnc2cc(-c3ccc4c(c3)N([C@H]3C[C@@H](N5CCCCC5)C3)C(=O)C43CCN(C(=O)[C@H]4CN(C(=O)C5CCN(c6ccc(C7CCC(=O)NC7=O)cn6)CC5)C[C@H]4C)CC3)nc(NC3CC3)c21 (mixture of isomers) [Example 248, (3RS)-3-(6-{4-[(3R,4S)-3-({6-[4-(cyclopropylamino)-3-(propan-2-yl)-3H-imidazo[4,5-c]pyridin-6-yl]-2-oxo-1-[(1S,3S)-3-(piperidin-1-yl)cyclobutyl]-1,2-dihydrospiro[indole-3,4′-piperidin]-1′-yl}carbonyl)-4-methylpyrrolidine-1-carbonyl]piperidin-1-yl}pyridin-3-yl)piperidine-2,6-dione] | < 100 nM | > 85% |
| CC(C)n1cnc2cc(-c3ccc4c(c3)N([C@H]3C[C@@H](N5CCCCC5)C3)C(=O)C43CCN(C(=O)C4CC5(C4)CN(C(=O)C4CCN(c6ccc(C7CCC(=O)NC7=O)cn6)CC4)C5)CC3)nc(NC3CC3)c21 (stereo partly drawn) [Example 182, 3-(6-{4-[6-({6-[4-(cyclopropylamino)-3-(propan-2-yl)-3H-imidazo[4,5-c]pyridin-6-yl]-2-oxo-1-[(1S,3S)-3-(piperidin-1-yl)cyclobutyl]-1,2-dihydrospiro[indole-3,4′-piperidine]-1′-yl}carbonyl)-2-azaspiro[3.3]heptane-2-carbonyl]piperidin-1-yl}pyridin-3-yl)piperidine-2,6-dione] | < 100 nM | > 85% |
| CC(C)n1cnc2cc(-c3ccc4c(c3)N([C@H]3C[C@@H](N5CCCCC5)C3)C(=O)C43CCN(C(=O)[C@H]4CC[C@H](C(=O)N5CCC(N(C)c6ccc(C7CCC(=O)NC7=O)cc6)CC5)CC4)CC3)nc(Nc3ccncc3F)c21 (mixture of isomers) [Example 136, (3RS)-3-{4-[methyl({1-[(1R,4R)-4-[(6-{4-[(3-fluoropyridin-4-yl)amino]-3-(propan-2-yl)-3H-imidazo[4,5-c]pyridin-6-yl}-2-oxo-1-[(1S,3S)-3-(piperidin-1-yl)cyclobutyl]-1,2-dihydrospiro[indole-3,4′-piperidin]-11′-yl)carbonyl]cyclohexanecarbonyl]piperidin-4-yl})amino]phenyl}piperidine-2,6-dione] | < 100 nM | 70 to 85% |
| Cc1cc(F)c(Nc2nc(-c3ccc4c(c3)N([C@H]3C[C@@H](N5CCCCC5)C3)C(=O)C43CCN(C(=O)c4cc(C(=O)N5CCN(c6ccc7c(c6)C(=O)N(C6CCC(=O)NC6=O)C7=O)CC5)n(C)n4)CC3)cc3ncn(C(C)C)c23)cc1C(=O)NC(C)C (mixture of isomers) [Example 145, 5-[(6-{1′-[5-(4-{2-[(3RS)-2,6-dioxopiperidin-3-yl]-1,3-dioxo-2,3-dihydro-1H-isoindol-5-yl}piperazine-1-carbonyl)-1-methyl-1H-pyrazole-3-carbonyl]-2-oxo-1-[(1S,3S)-3-(piperidin-1-yl)cyclobutyl]-1,2-dihydrospiro[indole-3,4′-piperidin]-6-yl}-3-(propan-2-yl)-3H-imidazo[4,5-c]pyridin-4-yl)amino]-4-fluoro-2-methyl-N-(propan-2-yl)benzamide] | 500 to 1000 nM | 50 to 70% |
| CC(C)n1cnc2cc(-c3ccc4c(c3)N([C@H]3C[C@@H](N5CCCCC5)C3)C(=O)C43CCN(C(=O)[C@@]45C[C@@H]4CN(C(=O)C4CCN(c6ccc(C7CCC(=O)NC7=O)cn6)CC4)C5)CC3)nc(NC3CC3)c21 (mixture of isomers) [Example 259, (3RS)-3-(6-{4-[(1S,5S)-1-({6-[4-(cyclopropylamino)-3-(propan-2-yl)-3H-imidazo[4,5-c]pyridin-6-yl]-2-oxo-1-[(1S,3S)-3-(piperidin-1-yl)cyclobutyl]-1,2-dihydrospiro[indole-3,4′-piperidin]-1′-yl}carbonyl)-3-azabicyclo[3.1.0]hexane-3-carbonyl]piperidin-1-yl}pyridin-3-yl)piperidine-2,6-dione] | < 100 nM | 70 to 85% |
